Reference: article PMC9683054, “Synthesis of N-(4-chlorophenyl) substituted pyrano[2,3-c]pyrazoles enabling PKBβ/AKT2 inhibitory and in vitro anti-glioma activity” (Annals of Medicine, 2022)
pIC50: −log10 of the molar value.

Legend:
[1] = molecular target: T1, AKT2/PKBβ (Homo sapiens, UniProt P31751, S474D); assay: […]-γ-ATP radiometric kinase assay with purified kinase and Crosstide peptide; assay type: biochemical
T1 construct: ΔPH-PKBβ-S474D

[2] = molecular target: T2, AKT1/PKBα (Homo sapiens, UniProt P31749, S473D); assay: as above; assay type: biochemical
T2 construct: ΔPH-PKBα-S473D
T2 sequence (P31749 118-480 S473D limits assumed): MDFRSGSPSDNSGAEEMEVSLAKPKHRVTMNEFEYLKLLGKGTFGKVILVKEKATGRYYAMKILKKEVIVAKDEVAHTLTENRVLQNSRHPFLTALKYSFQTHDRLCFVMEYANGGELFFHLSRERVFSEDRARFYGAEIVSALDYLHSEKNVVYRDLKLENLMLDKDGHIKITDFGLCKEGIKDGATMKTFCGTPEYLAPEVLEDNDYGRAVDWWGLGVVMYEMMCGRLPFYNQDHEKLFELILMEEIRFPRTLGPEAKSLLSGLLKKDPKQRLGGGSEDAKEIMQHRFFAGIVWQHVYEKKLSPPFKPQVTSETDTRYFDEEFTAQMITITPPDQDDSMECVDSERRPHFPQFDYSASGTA

T1 sequence (P31751 119-481 S474D limits assumed): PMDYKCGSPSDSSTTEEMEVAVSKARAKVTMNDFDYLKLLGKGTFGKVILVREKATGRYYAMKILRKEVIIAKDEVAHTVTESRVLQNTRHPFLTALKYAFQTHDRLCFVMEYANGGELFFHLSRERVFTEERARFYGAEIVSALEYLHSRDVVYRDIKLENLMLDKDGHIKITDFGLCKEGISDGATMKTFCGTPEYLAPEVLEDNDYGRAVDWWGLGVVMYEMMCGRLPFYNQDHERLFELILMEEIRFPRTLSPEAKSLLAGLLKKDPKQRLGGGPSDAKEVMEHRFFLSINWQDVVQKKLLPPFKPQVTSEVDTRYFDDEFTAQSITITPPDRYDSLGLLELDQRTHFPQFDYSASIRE

pIC50 [1]: 4.92 | pIC50 [2]: 4.85
SMILES: Cc1nn(-c2ccc(Cl)cc2)c2c1C(c1ccc(-c3ccccc3)cc1)C(C#N)=C(N)O2 (centres unmarked) [4j, 6-Amino-4-(biphenyl-4-yl)-1-(4-chlorophenyl)-3-methyl-1,4-dihydropyrano[2,3-c]pyrazole-5-carbonitrile]
